For the test, the system named is P. falciparum 3D7 growth, pLDH absorbance. Kind of test: P. falciparum 3D7 growth inhibition, dose response, strain 3D7 (AID 2305).

“And” between values parts separate entries of the source, which are not always exact repeats. Identical values can stand only once.

As a reminder, the IC50 is the concentration that inhibits the measured activity by half. The low end stands for greater potency, the high end for weaker potency.

Take `CCc1nc(N)nc(N)c1-c1ccc(Cl)cc1`: the IC50 is 60 nM and 30 nM.

With `COc1ccc(-n2ccnc2SCC(=O)Nc2cccc(C(F)(F)F)c2)c(OC)c1`, the IC50 was 220 nM.

`O=S(=O)(Nc1cc2c(cc1O)CCNCC2)c1ccc(-c2ccc(Cl)cc2)cc1` registered an IC50 of 980 nM.

The compound `CCCCC1=CC2C(=O)C(C(=O)OC)=CN=C2C=C1OCc1ccccc1` (configuration not stated) had an IC50 of 40 nM.

With `O=C(CC(=O)C(F)(F)F)c1ccc2c(c1)OCO2`, the IC50 came to 740 nM.

Compound `Cc1ccccc1Nc1nc(NCCCO)c2ccccc2n1` yielded an IC50 of 410 nM.

`CCN(CC)CCN(Cc1ccc(-c2ccc(C(F)(F)F)cc2)nc1)C(=O)Cn1cc(Cc2cnn(C)c2)c(=O)n2nc(-c3ccccc3)cc12` had an IC50 of 990 nM.

As for `O=c1cnc2ccc(F)cc2n1CCN1CCC(NCc2cc(-c3ccccc3)cs2)CC1`, the 50% inhibitory concentration (IC50) turned out to be 860 nM.

Compound `Cc1cccc2[nH]c(-c3ccc(-c4ccc(NC(=O)Nc5ccc(F)c(F)c5F)cc4)cc3)nc12` registered an IC50 of 270 nM.

As to `C[C@@H]1CN(c2nc(NCCc3ccc(O)cc3)nc(NCc3ccccc3-c3ccc(C(F)(F)F)cc3)n2)C[C@H](C)N1`, the IC50 came out at 530 nM.

As to `O=c1c(Br)c(C(F)(F)F)[nH]c2ccc(Oc3ccccc3)cc12`, the IC50 amounted to 1100 nM.

Turning to `Cc1ccc2c(NN=Cc3cccc([N+](=O)[O-])c3)cc(C)nc2c1`, the IC50 worked out at 270 nM.

Take `CC[C@H](C)CNC(=O)c1ccnc(-c2ccc(CN3CCC(N4CCCC4)CC3)cc2)c1`: the IC50 stood at 890 nM.

In turn, `COC(=O)c1ccc(CCCNCC(O)c2cccc(C(F)(F)F)c2)cc1` (configuration not stated) came in with an IC50 of 800 nM.

The compound `CC(C)(C)Cn1cc(-c2ccc(C(=O)NCCc3ccc(S(C)(=O)=O)cc3)cc2)c(N)n1` (tested in a mixture with another compound) registered an IC50 of 650 nM.

`COc1ccc2nccc([C@@H](O)CN3CCC(NC(=O)c4cccc(C(=O)c5ccccc5)c4)CC3)c2c1` displayed an IC50 of 690 nM.

In turn, `O=C(N[C@@H](CC1CCCCC1)C(=O)NCCN1CCOCC1)c1ccc(O)c(-c2ccc(Cl)c(Cl)c2)c1` had a half-inhibitory concentration (IC50) of 180 nM.

`Nc1nc(-c2ccccn2)nc(-n2nc(-c3cccc(C(F)(F)F)c3)cc2N)n1` gave an IC50 of 1040 nM.

Compound `CN1CCN(CCCN(Cc2cccc(-c3cccc(CNCc4ccc5c(c4)OCO5)c3)c2)C(=O)CCC2CCCC2)CC1` gave an IC50 of 950 nM.

In turn, `Cc1cccc2[nH]c(-c3ccc(-c4ccc(CNCc5cnn(-c6ccccc6)n5)cc4)cc3)nc12` displayed an IC50 of 430 nM.

For `CCCN(CC)CCOC(=O)c1ccccc1`, the IC50 was determined as 740 nM.

With `CC1CCN(Cc2cccc(C(=O)NCc3ccc(F)c(-c4cccc(CN5CCN[C@@H](C)C5)c4)c3)c2)CC1`, the IC50 stood at 1460 nM.

For `Clc1ccc2c(NCCNc3ccnc4cc(Cl)ccc34)ccnc2c1`, the IC50 worked out at 400 nM.

As for `O=S(=O)(NC1CCN(c2ccnc3cc(Cl)ccc23)C1)c1cccs1` (configuration not stated), the IC50 was 700 nM.

`COCn1ncc2cc(-c3cccc(NC(=O)c4csc(NC(C)=O)n4)c3)ccc21` had an IC50 of 990 nM.

With `CCOCCCNc1sc(S(=O)(=O)c2ccccc2)nc1S(=O)(=O)c1ccc(C)cc1`, the IC50 came out at 810 nM.

As for `CCN(CC)c1ccc(NC(=S)NC2CCN(CCCCCNC(=O)/C=C/c3ccc(Cl)c(Cl)c3)CC2)cc1`, the IC50 stood at 880 nM.

`Cc1cccc(C(=O)NC(NC(=S)Nc2cc(Cl)ccc2Cl)C(Cl)(Cl)Cl)c1` (configuration not stated) showed an IC50 of 1270 nM.

Regarding `CC(C)(CNC(=O)C1CCN(Cc2ccc(Cl)cc2)CC1)c1nc(-c2ccc(Cl)c(O)c2)c(-c2ccncc2)[nH]1`, the IC50 worked out at 620 nM.

`CC(C)(C)C(=O)Nc1ccc(C(=O)Nc2cccc(-c3nc4ccccc4[nH]3)c2)cc1` yielded a 50% inhibitory concentration (IC50) of 280 nM.

Compound `COc1ccc(CCNCc2ccc3nc(N)c(C)cc3c2)cc1` yielded an IC50 of 990 nM.

For the compound `FC(F)(F)c1cc(C(F)(F)F)c2cc(CNCCCNc3nc4ccccc4[nH]3)[nH]c2c1`, the IC50 worked out at 140 nM.

`COc1ccccc1NC(=O)Nc1cccc(-c2ccc(-c3nc4c(C)cccc4[nH]3)s2)c1` registered an IC50 of 580 nM.

`COc1ccc2nccc([C@@H](O)CN3CCC(NCCOc4cc(F)cc(F)c4)CC3)c2c1` gave an IC50 of 160 nM.

`Fc1ccc(CNc2ncc(-c3ccsc3)c(-c3nccs3)n2)cc1`: the IC50 was 70 nM.

`COc1ccc(NC(=O)c2ccc(Br)c(C)c2)cc1N1CCN(CCCCc2ccccc2)CC1` yielded a concentration for half-maximal inhibition (IC50) of 820 nM.

Regarding `O=C(Nc1cccc(-c2nn3ccccc3c2-c2ccnc(Nc3ccc(NCCCN4CCOCC4)c(F)c3)n2)c1)c1c(F)cccc1F`, the IC50 is 260 nM.

The compound `O=C(NCC(c1ccc(C(F)(F)F)cc1)N1CCCC1)c1cc(-c2ccncc2)c(-c2cccc(O)c2)o1` (configuration not stated) came in with an IC50 of 1060 nM.

For `COc1ccc(-c2cccc(NC(=O)c3ccc(F)cc3)c2)cc1CNC(C)C`, the half-maximal inhibitory concentration (IC50) amounted to 1380 nM.

`O=S(=O)(Nc1cc2c(cc1O)CCN(C1CCC1)CC2)c1ccc(-c2ccc(F)cc2)cc1` showed an IC50 of 420 nM.

Regarding `COc1ccc2c(OC)ccc(CNCCCCCCNCc3ccc(OC)c4ccc(OC)cc34)c2c1`, the half-inhibitory concentration (IC50) turned out to be 400 nM.

The compound `Cc1cc(NC2CCN(CC3CCCCC3)C2)nc(Nc2ccc(Cl)cc2)n1` (configuration not stated) had a half-maximal inhibitory concentration (IC50) of 400 nM.

As for `OC(CNC1CCCCCCC1)c1ccc(Cl)c(Cl)c1` (configuration not stated), the IC50 was found to be 210 nM.

`Cc1ccc2nc(C)n(C3CCN(C(=O)Cc4ccccc4C)CC3)c2c1`: the IC50 turned out to be 240 nM.

The compound `CN1CCN(CCCN(Cc2cccc(-c3cccc(CNC4CCCC4)c3)c2)C(=O)CCC2CCCC2)CC1` registered a half-maximal inhibitory concentration (IC50) of 680 nM.

In turn, `CC(C)(C)c1ccc(O)c(CNC2CCCCC2)c1` came in with an IC50 of 260 nM.

As to `Cc1ccc2nc3c(cc(C(=O)NCCc4ccccc4)c(=N)n3CCCOC(C)C)c(=O)n2c1`, the IC50 turned out to be 890 nM.

In turn, `O=C(/C=C/c1ccc(C(F)(F)F)cc1)N1CCc2cc3nccc(N4CCN5CCC[C@H]5C4)c3cc21` showed a half-inhibitory concentration (IC50) of 1510 nM.

In turn, `NC(N)=NC(=O)Nc1cc(Br)c(Cl)c(Br)c1` had an IC50 of 770 nM.

The compound `CC(C)CNCc1cccc(-c2ccccc2CN(C(=O)Nc2ccccc2)C2CCN(Cc3ccccc3)CC2)c1` registered an IC50 of 640 nM.

Take `O=C(Nc1ccc(Br)cc1)c1cc(Br)ccc1NS(=O)(=O)c1ccc(C(F)(F)F)cc1`: the IC50 is 180 nM.

`CCCNCc1ccc(-c2ccc(CN(CCOC)C(=O)c3ccc([N+](=O)[O-])c(C)c3)cc2)nc1` returned an IC50 of 870 nM.

`CC(C)COc1ccc(Cl)cc1Cc1nc(-c2nc3ccc(CN4CCCCC4)cc3[nH]2)co1` returned an IC50 of 740 nM.

As for `COc1ccc2nccc(NN=Cc3ccncc3)c2c1`, the half-maximal inhibitory concentration (IC50) came out at 580 nM.

Compound `COc1ccc(NC(=O)c2ccc3cc4ccccc4cc3c2)cc1N1CCN(C)CC1` came in with an IC50 of 1030 nM.

`CC(C)(C)NS(=O)(=O)c1cc(C(=O)N2CCC(CCN3CCC(C(=O)c4ccc(F)cc4)CC3)(c3cccc(F)c3)CC2)c(Cl)cc1F` showed an IC50 of 750 nM.

`CCN(CC)CCN(Cc1ccc(-c2ccc(C(F)(F)F)cc2)cc1)C(=O)CN1C(CCc2cccc(F)c2F)=NS(=O)(=O)c2ccccc21` registered an IC50 of 240 nM.

Compound `CCC(C)CN1CCCN(c2ccc(NC(=O)c3cccs3)cc2)CC1` (configuration not stated) had an IC50 of 800 nM.

Regarding `COc1ccc(Nc2nccc(N3CCC(NS(=O)(=O)c4ccc(NC(C)=O)cc4)C3)n2)cc1` (configuration not stated), the IC50 came out at 800 nM.

`Clc1ccc2c(NCc3ccc4c(c3)OCO4)ccnc2c1` gave an IC50 of 270 nM.

With `C#CCOc1ccc2ccccc2c1CNCCCCCCNCc1c(OCC#C)ccc2ccccc12`, the IC50 was 780 nM.

In turn, `COc1cc(CNCCCNc2nc3ncccc3[nH]2)c2[nH]cc(Br)c2c1` showed a concentration for half-maximal inhibition (IC50) of 1160 nM.

The record behind these values is PubChem BioAssay AID2305 (GlaxoSmithKline (GSK), 2010).
